Measured values from patent publication US9745339B2 (GRAFFINITY PHARMACEUTICALS GMBH, priority 2012, dated 2017).

Columns and labels:
Bevacizumab [1] = target: T1, Bevacizumab (Homo sapiens, UniProt P01857); assay: Microtiter plate chromatography of resins: binding and elution of Bevacizumab; conditions: for Bevacizumab Bound: fraction of injected protein bound, 0.5 mg/ml IgG in PBS pH 7.3, ligand immobilized on SEPHAROSE 4 FF; for Bevacizumab Yield: mass eluted (glycine pH 2.5) / mass injected
T1 construct: 0.5 mg/ml IgG in PBS pH 7.3; ligand immobilized on SEPHAR; Bevacizumab Yield; other: mass eluted (glycine pH 2.5) / mass injected; kd (dissociation constant, Langmuir isotherm); other: Bevacizumab 0.05-5 mg/ml in PBS pH 7.3, 25° C., at least 3 h; qm (maximum capacity); other: mg Bevacizumab per ml of resin; Langmuir isotherm; t0; fused on or other part: Humanized anti-VEGF-A VH domain joined N-terminally to the IGHG1 constant region (engineered, no UniProt entry)
Experimental: (§1) Resins were assessed in packed mode by microtiter plate chromatography. For each column, approximately 30 μl of resin were transferred to a 384-well filter plate and sealed with appropriate top fits. Columns with rProtein A SEPHAROSE 4 FF and MABSORBENT A2P HF were included as controls.
(§2) Either 3.3 cv of whole IgGs dissolved at 0.5 mg ml^−1 in PBS or undiluted host cell proteins (HCP) were injected onto columns.
(§3) Unbound protein was washed from columns with 5 cv of PBS prior to elution with 5 cv of glycine buffer at pH 2.5. […] During injection of samples, speed was reduced to 10 g and centrifugation time increased to 5-10 min. Effluent fractions were collected in 384-well plates and concentrations of protein were analyzed by Bradford assay. Protein masses mi, mft and me (see below) were calculated as the product of fraction volume and measured protein concentration.
(§4) The fraction of bound protein was calculated as the difference between the total mass of protein injected mi and the mass of protein detected in the flowthrough mft, divided by the total mass of protein injected.
(§5) The yield of protein was calculated as the mass of protein eluted me, divided by the mass of protein injected mi.
(§6) The selectivity of resins was calculated as the fraction of bound Bevacizumab antibody BAb, divided by the fraction of bound host cell proteins BHCP.
(§7) The fraction of bound protein and the yield of protein were calculated for each resin based on data for whole IgG-antibodies. In the case of host cell proteins, only the fraction of bound protein is given. Selectivity of resins was calculated from data for Bevacizumab whole IgG and host cell proteins. Due to limited experimental precision, selectivity was truncated for values beyond 10.

Bevacizumab [2] = assay: as above; conditions: fraction of bound Bevacizumab divided by fraction of bound HCP; truncated for values beyond 10
Experimental: as §1, §2, §3, §4, §5, §6, §7

Tocilizumab = assay: Microtiter plate chromatography of resins: binding and elution of Tocilizumab; conditions: fraction of injected protein bound; 0.5 mg/ml IgG in PBS pH 7.3
Experimental: as §1, §2, §3, §4, §5, §7

Palivizumab = assay: Microtiter plate chromatography of resins: binding and elution of Palivizumab; conditions: fraction of injected protein bound; 0.5 mg/ml IgG in PBS pH 7.3
Experimental: as §1, §2, §3, §4, §5, §7

Cetuximab = assay: Microtiter plate chromatography of resins: binding and elution of Cetuximab; conditions: fraction of injected protein bound; 0.5 mg/ml IgG in PBS pH 7.3
Experimental: as §1, §2, §3, §4, §5, §7

[3] = system: poly-IgG from human serum (h-poly-IgG); assay: Microtiter plate chromatography of resins: binding and elution of human poly-IgG; conditions: fraction of injected protein bound; 0.5 mg/ml IgG in PBS pH 7.3
Experimental: as §1, §2, §3, §4, §5, §7

host cell proteins (HCP) = assay: Microtiter plate chromatography of resins: binding of host cell proteins; design: species or system CHO cell culture; conditions: fraction of injected undiluted host cell proteins bound
Experimental: Flowthrough from protein A chromatography (referred to as host cell proteins) was derived from the supernatant of antibody-producing CHO cell culture in serum-free medium. Coomassie brilliant blue dye reagent for Bradford assay was purchased from Thermo Scientific (Bonn/Germany).
as §1, §2, §3, §4, §7

Bevacizumab Bound (Bevacizumab [1])	Bevacizumab Yield (Bevacizumab [1])	Selectivity (Bevacizumab [2])	Tocilizumab Bound (Tocilizumab)	Palivizumab Bound (Palivizumab)	Cetuximab Bound (Cetuximab)	h-poly-IgG Bound [3]	Compound	HCP Bound (host cell proteins (HCP))
100%	104%	10.0	85%	78%	100%	78%	Cc1ccc(NC(=O)c2ccc3c(c2)ncn3CCCN)nn1 [Ligand L34, 1-(3-Amino-1-propyl)benzimidazole-5-carboxylic acid N-(6-methylpyridazin-3-yl) amide]	10%
100%	106%	2.9	99%	95%	100%	99%	NCCCOc1ccc(C(=O)Nc2nc(-c3ccccn3)cs2)cc1 [Ligand L38, 4-[(1-Amino-3-propyl)oxy]benzoic acid N-[4-(2-pyridyl)thiazol-2-yl] amide]	35%
100%	100%	2.9	100%	100%	100%	100%	NCCCOc1ccc(C(=O)Nc2nnc(-c3ccco3)s2)cc1 [Ligand L20, 4-[(1-Amino-3-propyl)oxy]benzoic acid N-[5-(2-furyl)-1,3,4-thiadiazol-2-yl] amide]	35%
100%	103%	2.3	100%	91%	100%	91%	NCCCn1cnc2cc(C(=O)Nc3nc4c(s3)CCC4)ccc21 [Ligand L32, 1-(3-Amino-1-propyl)benzimidazole-5-carboxylic acid N-(5,6-dihydro-(4H)-cyclopentathiazol-2-yl) amide]	44%
100%	105%	2.9	100%	100%	100%	100%	NCCCn1cnc2cc(C(=O)Nc3nnc(-c4ccccc4)s3)ccc21 [Ligand L33, 1-(3-Amino-1-propyl)benzimidazole-5-carboxylic acid N-(2-phenyl-1,3,4-thiadiazol-5-yl) amide]	34%
100%	104%	3.4	100%	100%	100%	100%	NCCCn1cnc2cc(C(=O)Nc3nnc(C4CC4)s3)ccc21 [Ligand L35, 1-(3-Amino-1-propyl)benzimidazole-5-carboxylic acid N-(2-cyclopropyl-1,3,4-thiadiazol-5-yl) amide]	29%

The next lines start with the molecule.

Compound	Bevacizumab Bound (Bevacizumab [1])	Bevacizumab Yield (Bevacizumab [1])	Selectivity (Bevacizumab [2])	Tocilizumab Bound (Tocilizumab)	Palivizumab Bound (Palivizumab)	Cetuximab Bound (Cetuximab)	h-poly-IgG Bound [3]	HCP Bound (host cell proteins (HCP))
NCCCNc1ccc(C(=O)Nc2nnc(-c3ccco3)s2)cc1[N+](=O)[O-] [Ligand L18, 4-[(3-Amino-1-propyl)amino]-3-nitrobenzoic acid N-[5-(2-furyl)-1,3,4-thiadiazol-2-yl]amide]	100%	102%	3.4	100%	100%	100%	100%	29%
CCSc1nnc(NC(=O)c2ccc3c(c2)ncn3CCCN)s1 [Ligand L12, 1-(3-Amino-1-propyl)benzimidazole-5-carboxylic acid N-(2-ethylthio-1,3,4-thiadiazol-5-yl) amide]	100%	104%	2.5	100%	100%	100%	100%	40%
NCCCn1cnc2cc(C(=O)Nc3nc4ccccc4s3)ccc21 [Ligand L10, 1-(3-Amino-1-propyl)benzimidazole-5-carboxylic acid N-(benzothiazol-2-yl) amide]	100%	100%	2.2	100%	100%	100%	100%	45%
Cc1cnc(NC(=O)c2ccc3c(c2)ncn3CCCN)s1 [Ligand L17, 1-(3-Amino-1-propyl)benzimidazole-5-carboxylic acid N-(5-methylthiazol-2-yl) amide]	100%	100%	2.9	100%	88%	100%	89%	34%
Cc1csc(NC(=O)c2ccc3c(c2)ncn3CCCN)n1 [Ligand L15, 1-(3-Amino-1-propyl)benzimidazole-5-carboxylic acid N-(4-methylthiazol-2-yl) amide]	100%	91%	2.6	100%	100%	100%	100%	39%
NCCCn1cnc2cc(C(=O)Nc3nnc(-c4ccc5c(c4)OCO5)s3)ccc21 [Ligand L09, 1-(3-Amino-1-propyl)benzimidazole-5-carboxylic acid N-[2-(3,4-methylenedioxyphenyl)-1,3,4-thiadiazol-5-yl] amide]	100%	97%	2.6	100%	100%	100%	100%	39%
Cc1cc(NC(=O)c2ccc3c(c2)ncn3CCCN)nn1-c1ccccc1 [Ligand L11, 1-(3-Amino-1-propyl)benzimidazole-5-carboxylic acid N-(5-methyl-1-phenylpyrazol-3-yl) amide]	100%	99%	2.0	96%	61%	98%	88%	51%
